Among the test systems are CCRF-CEM leukemia; EKVX NSCLC; HL-60(TB) leukemia; NCI-H460 lung; NCI-H522 lung; OVCAR-8 ovarian; RXF 393 renal; SK-MEL-5 melanoma; SNB-19 CNS; UACC-62 melanoma.
What all share (test): NCI anticancer screen, dose series, 48 h

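Method: 48-hour compound exposure of cells in 96-well plates, five concentrations, linear interpolation of endpoints. GI50 marks 50% less growth. TGI denotes the concentration required for complete inhibition of growth.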

Regarding `N/N=C1\CC(=O)NC(=O)N1`, the TGI in the assay with CCRF-CEM leukemia, in the assay on EKVX NSCLC, with HL-60(TB) leukemia, with NCI-H460 lung, with NCI-H522 lung and in the assay on OVCAR-8 ovarian was greater than 100 µM each time. Besides, the TGI in the assay with RXF 393 renal, with SK-MEL-5 melanoma, in the assay with SNB-19 CNS and in the assay on UACC-62 melanoma was greater than 100 µM throughout.

With `CN1CCN(CC(O)COc2c(Br)c(Br)c(Br)c3c2OC(C)(C)C3)CC1` (stereo not given), the GI50 in the assay with CCRF-CEM leukemia is 3.11 µM; in the assay with EKVX NSCLC it was 5.21 µM; with HL-60(TB) leukemia, 4.57 µM; in the assay with NCI-H460 lung it was 3.1 µM; in the assay on NCI-H522 lung it was 6.15 µM; in the assay on OVCAR-8 ovarian, 10.3 µM. Further, the GI50 in the assay on RXF 393 renal is 3.3 µM; in the assay with SK-MEL-5 melanoma it was 1.83 µM; in the assay on SNB-19 CNS, 12.7 µM; in the assay with UACC-62 melanoma, 1.83 µM. Also, the TGI was 16.2 µM with CCRF-CEM leukemia; 19.7 µM with EKVX NSCLC; 18 µM in the assay on HL-60(TB) leukemia; 10.6 µM in the assay with NCI-H460 lung; 28.5 µM in the assay on NCI-H522 lung; 42.2 µM with OVCAR-8 ovarian. Moreover, the TGI came to 6.53 µM in the assay on RXF 393 renal, 3.27 µM in the assay with SK-MEL-5 melanoma, 42.9 µM in the assay with SNB-19 CNS and 3.29 µM in the assay on UACC-62 melanoma.

Regarding `O=C1NC(=O)C(c2cccc(Cl)c2)=C1Nc1ccc(O)c(Cl)c1`, the GI50 in the assay with CCRF-CEM leukemia was 11 µM; in the assay on EKVX NSCLC it was 10.6 µM; in the assay on HL-60(TB) leukemia it was 8.75 µM; in the assay on NCI-H460 lung, 8.91 µM; in the assay on NCI-H522 lung it was 6.98 µM; in the assay on OVCAR-8 ovarian, 14 µM. In addition, the GI50 with RXF 393 renal is 6.4 µM; in the assay on SK-MEL-5 melanoma it was 5.46 µM; in the assay on SNB-19 CNS it was 15.9 µM; in the assay with UACC-62 melanoma it was 7.63 µM. Besides, the TGI with CCRF-CEM leukemia is greater than 25 µM; in the assay with EKVX NSCLC, greater than 25 µM; in the assay on HL-60(TB) leukemia, greater than 25 µM; in the assay with NCI-H460 lung, greater than 25 µM; in the assay with NCI-H522 lung, greater than 21 µM; with OVCAR-8 ovarian, greater than 25 µM. The TGI in the assay on RXF 393 renal is 24.8 µM; with SK-MEL-5 melanoma, 18.6 µM; in the assay with SNB-19 CNS, greater than 25 µM; in the assay on UACC-62 melanoma, greater than 25 µM.

Take `CC(C)(C)CN1CCn2c(nc3c(N)nccc32)S1`: the GI50 in the assay with CCRF-CEM leukemia is 10.2 µM; with EKVX NSCLC, 30.9 µM; in the assay with HL-60(TB) leukemia it was 4.77 µM; in the assay on NCI-H460 lung, 4.25 µM; in the assay with NCI-H522 lung, 13.5 µM; with OVCAR-8 ovarian, 6.27 µM. Moreover, the GI50 with RXF 393 renal was 15.7 µM; in the assay on SK-MEL-5 melanoma, 14.5 µM; in the assay on SNB-19 CNS, 32.8 µM; in the assay with UACC-62 melanoma, 13.7 µM. The TGI in the assay with CCRF-CEM leukemia was greater than 100 µM; with EKVX NSCLC, greater than 100 µM; with HL-60(TB) leukemia it was 25.7 µM; in the assay with NCI-H460 lung it was 17.3 µM; with NCI-H522 lung, 31.6 µM; with OVCAR-8 ovarian it was greater than 100 µM. The TGI was 64.5 µM with RXF 393 renal, 31.1 µM in the assay on SK-MEL-5 melanoma, greater than 100 µM in the assay on SNB-19 CNS and 88.5 µM with UACC-62 melanoma.

Regarding `CN1CCC(n2cnc(-c3ccc(F)cc3)c2-c2ccnc(N)n2)CC1`, the GI50 is 14.4 µM in the assay on CCRF-CEM leukemia; 10.3 µM in the assay on EKVX NSCLC; greater than 25 µM in the assay with HL-60(TB) leukemia; 7.01 µM in the assay on NCI-H460 lung; 8.57 µM with NCI-H522 lung; 6.3 µM in the assay with OVCAR-8 ovarian. For the same compound, the GI50 with RXF 393 renal is 9.74 µM; in the assay on SK-MEL-5 melanoma, 11.6 µM; with SNB-19 CNS, 10.3 µM; in the assay on UACC-62 melanoma it was 14.1 µM. In addition, the TGI with CCRF-CEM leukemia, in the assay with EKVX NSCLC, in the assay on HL-60(TB) leukemia, in the assay on NCI-H460 lung, with NCI-H522 lung and in the assay with OVCAR-8 ovarian was greater than 25 µM in each case. In addition, the TGI in the assay with RXF 393 renal, with SK-MEL-5 melanoma, with SNB-19 CNS and with UACC-62 melanoma was greater than 25 µM throughout.

For the compound `CC(=O)c1c(C(F)(F)F)n([O-])c2ccc(C)cc2[n+]1=O`, the GI50 is 0.555 µM with CCRF-CEM leukemia; 1.19 µM in the assay with EKVX NSCLC; 1.92 µM with HL-60(TB) leukemia; 1.39 µM in the assay on NCI-H460 lung; 3 µM with NCI-H522 lung; 3.82 µM in the assay on OVCAR-8 ovarian. Also, the GI50 in the assay with RXF 393 renal was 10.2 µM; in the assay with SK-MEL-5 melanoma, 1.07 µM; with SNB-19 CNS it was 6.03 µM; with UACC-62 melanoma it was 1.31 µM. The TGI in the assay with CCRF-CEM leukemia was 4.83 µM; with EKVX NSCLC, 4.59 µM; in the assay on HL-60(TB) leukemia, 10.5 µM; in the assay with NCI-H460 lung it was greater than 39.8 µM; with NCI-H522 lung, greater than 24.2 µM; with OVCAR-8 ovarian it was greater than 100 µM. For the same compound, the TGI was greater than 100 µM in the assay with RXF 393 renal, 3 µM in the assay with SK-MEL-5 melanoma, greater than 100 µM with SNB-19 CNS and 3.34 µM in the assay with UACC-62 melanoma.

In the case of `COc1cc2nc(NCCCCCNC(=O)c3ccco3)nc(N)c2cc1OC`, the TGI is 88.2 µM with CCRF-CEM leukemia; greater than 100 µM with EKVX NSCLC; 43.3 µM in the assay on HL-60(TB) leukemia; greater than 100 µM in the assay on NCI-H460 lung; 96.4 µM in the assay on NCI-H522 lung; greater than 100 µM in the assay with OVCAR-8 ovarian. For the same compound, the TGI in the assay on RXF 393 renal is 83.5 µM; with SK-MEL-5 melanoma, 34.4 µM; with SNB-19 CNS, greater than 100 µM; with UACC-62 melanoma it was 52.6 µM.

As to `COc1ccc(C(Cl)=C(c2ccc(OCCN(C)C)cc2)c2ccc(OCCN(C)C)cc2)cc1`, the TGI was determined as 3.83 µM with CCRF-CEM leukemia; 18.1 µM with EKVX NSCLC; 3.65 µM in the assay on HL-60(TB) leukemia; 3.32 µM in the assay on NCI-H460 lung; 3.01 µM in the assay with NCI-H522 lung; 4.06 µM in the assay on OVCAR-8 ovarian. Also, the TGI worked out at 2.65 µM in the assay on RXF 393 renal, 3.52 µM in the assay on SK-MEL-5 melanoma, 7.43 µM with SNB-19 CNS and 3.16 µM in the assay on UACC-62 melanoma.

These data come from PubChem BioAssay (NCI).
